Source: patent publication US20070089847A1, “Anti-microbial paper products having a substituted 1,2-dihydroquinoline” (Novus International, Inc., priority 2005, published 2007)

What follows are compounds tested on Aspergillus niger ATCC 9642 and Aspergillus flavus ATCC 9643 (assay: In vitro disk assay of antifungal properties, agar plates containing test agent (Example 3)). Settings: 48 hours at 25° C.
Format: cell-based
Description: In this assay, paper disks were soaked in a fungal solution and placed on the surface of agar plates containing different concentration of the test agent. The radius of fungal growth radiating from each disk was considered indicative of the degree of inhibition by the agent relative to a control.
The test agents were diluted in DMSO or water and tested at several different concentrations. The test agents were added to the agar solution after sterilization, but prior to solidification. […] The plates were incubated for 48 hours at 25° C. The zones of fungal growth (or no growth) were analyzed and the minimum total inhibitory concentration (%) was estimated for each agent.

SMILES | Minimum Total Inhibitory Concentration (%)
CSCCC(O)C(=O)O (centres unmarked) [2-hydroxy-4(methylthio)butanoic acid] | >0.5%
CC(=O)C(C)O (centres unmarked) [3-Hydroxy-2-Butanone] | >0.5%
O=C(O)CCO [3-Hydroxypropionic Acid] | >0.5%
CC=O [Acetaldehyde] | >0.2%
CC(=O)O [Acetic Acid] | 0.2%
O=C(O)CCCCC(=O)O [Adipic Acid] | >0.5%
O=C(O)CCCCC1CCSS1 (stereo not drawn) [Alpha Lipoic Acid] | 0.1%
CC(=O)Oc1c(C)c(C)c2c(c1C)CCC(C)(CCC[C@H](C)CCC[C@H](C)CCCC(C)C)O2 (stereo partly drawn) [Alpha Tocopherol Acetate] | >0.5%
Cc1c(C)c2c(c(C)c1O)CC[C@@](C)(CCC[C@H](C)CCC[C@H](C)CCCC(C)C)O2 [Alpha Tocopherol] | >0.5%
O=C1O[C@H]([C@@H](O)CO)C(O)=C1O [Ascorbic Acid] | >0.5%
CCCCCCCCCCCCCCCC(=O)OC[C@H](O)[C@H]1OC(=O)C(O)=C1O [Ascorbyl Palmitate] | >0.5%
COc1ccc(O)c(C(C)(C)C)c1 [BHA (Butylated HydroxyAnisole), Butylated HydroxyAnisole] | 0.025%
Cc1cc(C(C)(C)C)c(O)c(C(C)(C)C)c1 [BHT (Butylated HydroxyToluene), Butylated HydroxyToluene] | >0.5%
O=Cc1ccccc1 [Benzaldehyde] | 0.5%
O=C(O)c1ccccc1 [Benzoic Acid] | 0.1%
O=C1CCO1 [Beta-Propiolactone] | 0.1%
OB(O)O [Boric Acid] | 0.5%
CCCC(=O)O [Butyric Acid] | 0.2%
CC(=O)[O-].CC(=O)[O-].[Ca+2] [Calcium Acetate] | >0.5%

SMILES | Minimum Total Inhibitory Concentration (%)
CCC(=O)[O-].CCC(=O)[O-].[Ca+2] [Calcium Propionate] | >0.5%
C=C(C)C1CC=C(C)C(=O)C1 (centres unmarked) [Carvone] | 0.1%
O=CC=Cc1ccccc1 [Cinnamaldehyde] | <0.005%
CC(C)=CCCC(C)=CC=O [Citral] | 0.1%
O=C(O)CC(O)(CC(=O)O)C(=O)O [Citric Acid] | >0.5%
O=S(=O)([O-])[O-].[Cu+2] [Copper Sulfate] | 0.05%
N[C@@H](CS)C(=O)O [Cysteine] | >0.5%
CCCCCCCCCC=O [Decanal] | >0.5%
CC(=O)C1C(=O)C=C(C)OC1=O (centres unmarked) [Dehydroacetic Acid] | 0.01%
Cc1cc(O)cc2c1O[C@](C)(CCC[C@H](C)CCC[C@H](C)CCCC(C)C)CC2 [Delta Tocopherol] | >0.5%
CC(=O)C(C)=O [Diacetyl] | 0.1%
CCCCCCCCCCCCOC(=O)CCSCCC(=O)OCCCCCCCCCCCC [Dilauryl Thiodipropionate] | >0.5%
CCCCCCCCCCCCOC(=O)c1cc(O)c(O)c(O)c1 [Dodecyl Gallate] | >0.5%
O=C(O)CN(CCN(CC(=O)O)CC(=O)O)CC(=O)O [EDTA] | 0.02%
CCO [Ethanol] | >0.5%
C=CCc1ccc(O)c(OC)c1 [Eugenol] | 0.05%
O=C(O)/C=C/C(=O)O [Fumaric Acid] | >0.5%
O=C(O)c1cc(O)c(O)c(O)c1 [Gallic Acid] | >0.5%
O=C(O)[C@H](O)[C@@H](O)[C@H](O)[C@H](O)CO [Gluconic Acid] | >0.5%
